Reference: ChEMBL document CHEMBL1146729, “Rational design and synthesis of novel heparan sulfate mimetic compounds as antiadhesive agents” (Bioorg Med Chem Lett, 2004)

Target: Matrix metalloproteinase-9 (Homo sapiens, UniProt P14780)
Experiment: Inhibition of matrix metalloprotease-9 at 100 uM (inactive)

Matrix metalloproteinase-9, sequence (P14780 whole entry): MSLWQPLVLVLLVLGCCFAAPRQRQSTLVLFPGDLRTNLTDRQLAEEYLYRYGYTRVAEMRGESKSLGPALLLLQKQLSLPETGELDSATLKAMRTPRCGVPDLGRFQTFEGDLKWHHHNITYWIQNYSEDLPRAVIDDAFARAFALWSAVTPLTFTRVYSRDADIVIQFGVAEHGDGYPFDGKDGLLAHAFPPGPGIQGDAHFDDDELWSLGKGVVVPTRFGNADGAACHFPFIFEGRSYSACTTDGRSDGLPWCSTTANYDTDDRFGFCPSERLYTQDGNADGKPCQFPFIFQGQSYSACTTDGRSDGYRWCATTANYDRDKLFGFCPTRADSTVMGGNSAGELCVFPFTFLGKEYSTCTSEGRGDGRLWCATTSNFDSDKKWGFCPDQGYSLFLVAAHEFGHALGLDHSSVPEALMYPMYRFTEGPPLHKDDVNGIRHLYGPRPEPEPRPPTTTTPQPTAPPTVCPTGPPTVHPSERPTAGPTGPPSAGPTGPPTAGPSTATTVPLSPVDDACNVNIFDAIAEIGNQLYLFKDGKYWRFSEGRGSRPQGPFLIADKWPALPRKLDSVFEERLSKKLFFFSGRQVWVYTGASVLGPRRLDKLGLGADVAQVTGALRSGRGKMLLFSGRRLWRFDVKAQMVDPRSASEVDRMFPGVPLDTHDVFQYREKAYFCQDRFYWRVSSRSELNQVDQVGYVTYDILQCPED

SMILES | IC50
O=C(O)CC(Sc1ccc(C(=O)c2ccccc2C(=O)O)cc1[N+](=O)[O-])C(=O)O (centres undefined) | Not Active
O=C(O)c1ccc(Sc2ccc(C(=O)c3ccccc3C(=O)O)cc2[N+](=O)[O-])cc1 | Not Active
O=C(O)c1ccccc1C(=O)c1ccc(F)cc1 | Not Active
O=C(O)c1ccccc1C(=O)c1ccc(F)c([N+](=O)[O-])c1 | Not Active
CCOc1ccc(C(=O)c2ccccc2C(=O)O)cc1[N+](=O)[O-] | Not Active
O=C(O)c1ccccc1C(=O)c1ccc(Oc2ccccc2)c([N+](=O)[O-])c1 | Not Active

System: HT-1080
Experiment: Compound (100 uM) was tested for percent inhibition against adhesion of human HT1080 cells; No inhibition
Type: functional, cell-based

SMILES | IC50
O=C(O)CC(Sc1ccc(C(=O)c2ccccc2C(=O)O)cc1[N+](=O)[O-])C(=O)O (centres undefined) | Not Active
O=C(O)c1ccc(Sc2ccc(C(=O)c3ccccc3C(=O)O)cc2[N+](=O)[O-])cc1 | Not Active
O=C(O)c1ccccc1C(=O)c1ccc(F)cc1 | Not Active
O=C(O)c1ccccc1C(=O)c1ccc(F)c([N+](=O)[O-])c1 | Not Active
CCOc1ccc(C(=O)c2ccccc2C(=O)O)cc1[N+](=O)[O-] | Not Active
O=C(O)c1ccccc1C(=O)c1ccc(Oc2ccccc2)c([N+](=O)[O-])c1 | Not Active

Target: 72 kDa type IV collagenase (Homo sapiens, UniProt P08253)
Sequence (P08253 whole entry): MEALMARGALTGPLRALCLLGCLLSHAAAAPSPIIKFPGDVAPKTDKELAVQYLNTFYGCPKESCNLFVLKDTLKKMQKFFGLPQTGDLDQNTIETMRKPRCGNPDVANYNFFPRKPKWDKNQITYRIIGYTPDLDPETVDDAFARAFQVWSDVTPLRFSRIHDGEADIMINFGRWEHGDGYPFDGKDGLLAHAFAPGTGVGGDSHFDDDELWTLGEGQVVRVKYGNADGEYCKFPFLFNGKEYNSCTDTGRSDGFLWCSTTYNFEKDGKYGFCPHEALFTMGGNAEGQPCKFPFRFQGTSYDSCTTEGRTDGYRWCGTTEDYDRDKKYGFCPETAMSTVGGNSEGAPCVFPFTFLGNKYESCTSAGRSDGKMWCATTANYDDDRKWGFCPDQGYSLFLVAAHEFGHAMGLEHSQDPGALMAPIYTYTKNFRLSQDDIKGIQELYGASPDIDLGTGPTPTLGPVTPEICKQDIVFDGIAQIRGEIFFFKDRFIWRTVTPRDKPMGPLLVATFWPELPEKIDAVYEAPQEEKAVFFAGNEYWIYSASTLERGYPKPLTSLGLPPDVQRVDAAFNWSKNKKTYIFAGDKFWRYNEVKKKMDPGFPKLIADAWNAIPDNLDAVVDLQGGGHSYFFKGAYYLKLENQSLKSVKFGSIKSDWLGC
Experiment: Inhibition of matrix metalloprotease-2 at 100 uM (inactive)

SMILES | IC50
O=C(O)CC(Sc1ccc(C(=O)c2ccccc2C(=O)O)cc1[N+](=O)[O-])C(=O)O (centres undefined) | Not Active
O=C(O)c1ccc(Sc2ccc(C(=O)c3ccccc3C(=O)O)cc2[N+](=O)[O-])cc1 | Not Active
O=C(O)c1ccccc1C(=O)c1ccc(F)cc1 | Not Active
O=C(O)c1ccccc1C(=O)c1ccc(F)c([N+](=O)[O-])c1 | Not Active
CCOc1ccc(C(=O)c2ccccc2C(=O)O)cc1[N+](=O)[O-] | Not Active
O=C(O)c1ccccc1C(=O)c1ccc(Oc2ccccc2)c([N+](=O)[O-])c1 | Not Active

Target: T1, Heparanase (Homo sapiens, UniProt Q9Y251)
T1 sequence (Q9Y251 whole entry): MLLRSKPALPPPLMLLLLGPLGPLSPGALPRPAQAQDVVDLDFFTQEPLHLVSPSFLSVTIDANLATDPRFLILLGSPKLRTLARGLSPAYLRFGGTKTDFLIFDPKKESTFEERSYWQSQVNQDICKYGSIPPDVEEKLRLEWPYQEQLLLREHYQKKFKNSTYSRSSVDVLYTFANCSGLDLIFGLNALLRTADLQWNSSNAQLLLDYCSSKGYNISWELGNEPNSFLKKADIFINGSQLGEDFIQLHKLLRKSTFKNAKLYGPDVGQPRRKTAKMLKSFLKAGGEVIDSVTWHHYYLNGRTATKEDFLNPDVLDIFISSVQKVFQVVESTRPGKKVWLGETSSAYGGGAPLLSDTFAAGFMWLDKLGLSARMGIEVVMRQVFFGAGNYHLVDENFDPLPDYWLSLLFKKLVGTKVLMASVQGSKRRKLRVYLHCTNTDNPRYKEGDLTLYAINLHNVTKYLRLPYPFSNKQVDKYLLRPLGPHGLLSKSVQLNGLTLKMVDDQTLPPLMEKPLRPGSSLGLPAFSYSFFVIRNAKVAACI
Experiment: Inhibitory concentration against heparanase; No inhibition

SMILES | IC50
O=C(O)CC(Sc1ccc(C(=O)c2ccccc2C(=O)O)cc1[N+](=O)[O-])C(=O)O (centres undefined) | Not Active
O=C(O)c1ccc(Sc2ccc(C(=O)c3ccccc3C(=O)O)cc2[N+](=O)[O-])cc1 | Not Active
O=C(O)c1ccccc1C(=O)c1ccc(F)cc1 | Not Active
O=C(O)c1ccccc1C(=O)c1ccc(F)c([N+](=O)[O-])c1 | Not Active
CCOc1ccc(C(=O)c2ccccc2C(=O)O)cc1[N+](=O)[O-] | Not Active
O=C(O)c1ccccc1C(=O)c1ccc(Oc2ccccc2)c([N+](=O)[O-])c1 | Not Active

System: HeLa
Experiment: Compound (100 uM) was tested for percent inhibition against adhesion of human HeLa cells; No inhibition
Type: functional, cell-based

SMILES | IC50
O=C(O)CC(Sc1ccc(C(=O)c2ccccc2C(=O)O)cc1[N+](=O)[O-])C(=O)O (centres undefined) | Not Active
O=C(O)c1ccc(Sc2ccc(C(=O)c3ccccc3C(=O)O)cc2[N+](=O)[O-])cc1 | Not Active
O=C(O)c1ccccc1C(=O)c1ccc(F)cc1 | Not Active
O=C(O)c1ccccc1C(=O)c1ccc(F)c([N+](=O)[O-])c1 | Not Active
CCOc1ccc(C(=O)c2ccccc2C(=O)O)cc1[N+](=O)[O-] | Not Active
O=C(O)c1ccccc1C(=O)c1ccc(Oc2ccccc2)c([N+](=O)[O-])c1 | Not Active

Target: Coagulation factor X (Homo sapiens, UniProt P00742)
Sequence (P00742 41-179 limits assumed): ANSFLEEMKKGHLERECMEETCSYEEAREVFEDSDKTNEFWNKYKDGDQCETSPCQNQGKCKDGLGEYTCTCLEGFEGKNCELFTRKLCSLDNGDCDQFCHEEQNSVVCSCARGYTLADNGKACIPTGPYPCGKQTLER
Sequence (P00742 235-488 limits assumed): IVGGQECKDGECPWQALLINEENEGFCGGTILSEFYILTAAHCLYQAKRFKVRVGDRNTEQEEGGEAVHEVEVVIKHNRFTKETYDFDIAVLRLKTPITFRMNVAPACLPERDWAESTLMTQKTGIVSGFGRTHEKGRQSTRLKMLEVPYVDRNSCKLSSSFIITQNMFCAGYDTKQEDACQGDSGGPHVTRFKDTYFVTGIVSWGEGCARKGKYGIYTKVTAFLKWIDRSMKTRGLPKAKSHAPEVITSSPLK
Experiment: Inhibition of Coagulation factor X at 100 uM; No inhibition

SMILES | IC50
O=C(O)CC(Sc1ccc(C(=O)c2ccccc2C(=O)O)cc1[N+](=O)[O-])C(=O)O (centres undefined) | Not Active
O=C(O)c1ccc(Sc2ccc(C(=O)c3ccccc3C(=O)O)cc2[N+](=O)[O-])cc1 | Not Active
O=C(O)c1ccccc1C(=O)c1ccc(F)cc1 | Not Active
O=C(O)c1ccccc1C(=O)c1ccc(F)c([N+](=O)[O-])c1 | Not Active
CCOc1ccc(C(=O)c2ccccc2C(=O)O)cc1[N+](=O)[O-] | Not Active
O=C(O)c1ccccc1C(=O)c1ccc(Oc2ccccc2)c([N+](=O)[O-])c1 | Not Active

Target: Prothrombin (Homo sapiens, UniProt P00734)
Experiment: Compound (100 uM) was tested for inhibitory activity against thrombin; No inhibition

SMILES | IC50
O=C(O)CC(Sc1ccc(C(=O)c2ccccc2C(=O)O)cc1[N+](=O)[O-])C(=O)O (centres undefined) | Not Active
O=C(O)c1ccc(Sc2ccc(C(=O)c3ccccc3C(=O)O)cc2[N+](=O)[O-])cc1 | Not Active
O=C(O)c1ccccc1C(=O)c1ccc(F)cc1 | Not Active
O=C(O)c1ccccc1C(=O)c1ccc(F)c([N+](=O)[O-])c1 | Not Active
CCOc1ccc(C(=O)c2ccccc2C(=O)O)cc1[N+](=O)[O-] | Not Active
O=C(O)c1ccccc1C(=O)c1ccc(Oc2ccccc2)c([N+](=O)[O-])c1 | Not Active

Target: Serine protease 1 (Homo sapiens, UniProt P07477)
Sequence (P07477 whole entry): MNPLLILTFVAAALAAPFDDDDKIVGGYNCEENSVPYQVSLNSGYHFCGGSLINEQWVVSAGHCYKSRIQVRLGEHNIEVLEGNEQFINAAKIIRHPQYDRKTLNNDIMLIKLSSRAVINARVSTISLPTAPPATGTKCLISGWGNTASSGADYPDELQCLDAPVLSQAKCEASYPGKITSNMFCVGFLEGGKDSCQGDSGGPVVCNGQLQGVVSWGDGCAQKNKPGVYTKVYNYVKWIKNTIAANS
Experiment: Inhibitory activity against trypsin at 100 uM; No inhibition

SMILES | IC50
O=C(O)CC(Sc1ccc(C(=O)c2ccccc2C(=O)O)cc1[N+](=O)[O-])C(=O)O (centres undefined) | Not Active
O=C(O)c1ccc(Sc2ccc(C(=O)c3ccccc3C(=O)O)cc2[N+](=O)[O-])cc1 | Not Active
O=C(O)c1ccccc1C(=O)c1ccc(F)cc1 | Not Active
O=C(O)c1ccccc1C(=O)c1ccc(F)c([N+](=O)[O-])c1 | Not Active
CCOc1ccc(C(=O)c2ccccc2C(=O)O)cc1[N+](=O)[O-] | Not Active
O=C(O)c1ccccc1C(=O)c1ccc(Oc2ccccc2)c([N+](=O)[O-])c1 | Not Active

Target: T2, Collagenase ColA (Bacteria, UniProt P43153)
T2 sequence (P43153 whole entry): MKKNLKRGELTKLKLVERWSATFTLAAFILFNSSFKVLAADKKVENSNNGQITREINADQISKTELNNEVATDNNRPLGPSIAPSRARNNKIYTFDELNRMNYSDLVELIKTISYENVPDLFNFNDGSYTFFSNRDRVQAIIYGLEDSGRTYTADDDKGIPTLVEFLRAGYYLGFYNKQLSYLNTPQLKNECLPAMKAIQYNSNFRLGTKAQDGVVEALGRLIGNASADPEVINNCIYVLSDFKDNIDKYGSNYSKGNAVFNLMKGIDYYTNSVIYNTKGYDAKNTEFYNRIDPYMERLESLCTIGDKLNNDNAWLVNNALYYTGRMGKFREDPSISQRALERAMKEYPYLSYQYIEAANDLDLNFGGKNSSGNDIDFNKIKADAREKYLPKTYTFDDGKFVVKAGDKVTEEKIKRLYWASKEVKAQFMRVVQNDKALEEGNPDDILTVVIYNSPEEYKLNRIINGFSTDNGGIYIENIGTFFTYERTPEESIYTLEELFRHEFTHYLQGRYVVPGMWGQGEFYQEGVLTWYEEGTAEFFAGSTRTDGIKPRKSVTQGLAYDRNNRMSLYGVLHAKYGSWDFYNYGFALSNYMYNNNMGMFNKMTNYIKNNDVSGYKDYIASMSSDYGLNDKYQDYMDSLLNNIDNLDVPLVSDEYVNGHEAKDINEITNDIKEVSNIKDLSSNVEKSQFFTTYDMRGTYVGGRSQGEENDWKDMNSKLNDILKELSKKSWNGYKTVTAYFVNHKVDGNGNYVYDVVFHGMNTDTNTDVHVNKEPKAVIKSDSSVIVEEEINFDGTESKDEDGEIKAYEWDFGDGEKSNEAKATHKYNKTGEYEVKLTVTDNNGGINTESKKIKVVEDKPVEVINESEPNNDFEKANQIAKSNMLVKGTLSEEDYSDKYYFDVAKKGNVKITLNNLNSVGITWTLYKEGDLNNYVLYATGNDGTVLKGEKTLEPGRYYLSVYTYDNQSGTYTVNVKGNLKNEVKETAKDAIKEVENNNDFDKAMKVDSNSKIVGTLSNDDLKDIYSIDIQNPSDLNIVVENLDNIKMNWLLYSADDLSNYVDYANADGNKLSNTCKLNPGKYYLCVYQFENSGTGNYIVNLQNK
Experiment: Inhibition of collagenase at 100 uM (No inhibition)
Design: species or system Hathewaya histolytica

SMILES | IC50
O=C(O)CC(Sc1ccc(C(=O)c2ccccc2C(=O)O)cc1[N+](=O)[O-])C(=O)O (centres undefined) | Not Active
O=C(O)c1ccc(Sc2ccc(C(=O)c3ccccc3C(=O)O)cc2[N+](=O)[O-])cc1 | Not Active
O=C(O)c1ccccc1C(=O)c1ccc(F)cc1 | Not Active
O=C(O)c1ccccc1C(=O)c1ccc(F)c([N+](=O)[O-])c1 | Not Active
CCOc1ccc(C(=O)c2ccccc2C(=O)O)cc1[N+](=O)[O-] | Not Active
O=C(O)c1ccccc1C(=O)c1ccc(Oc2ccccc2)c([N+](=O)[O-])c1 | Not Active
